Assay results taken from patent publication US20100197765A1, “METHOD FOR PROMOTING THE EXPRESSION OF P53, AND P53 EXPRESSION PROMOTER FOR USE IN THE METHOD” (THE UNIVERSITY OF TOKUSHIMA, priority 2007, published 2010).

How the values were obtained:
Format in all cases: cell-based, human
HepG2 cells = experiment: apoptosis (Apoptotic evaluation 1) of siRNA-expressing HepG2 cells treated with 5-FU; details: for basal apoptosis: HepG2, 0 μmol/L 5-FU; for proportion of apoptosis in response to 5-FU: HepG2, 5-FU 10, 30 μmol/L, 60 hours, concentration-dependent
Description: Objective cells were treated with various anticancer agents, and then incubated with trypsin/EDTA to prepare cell suspensions. The cell suspensions were centrifuged and supernatants thereof were removed. Thereafter, the cell suspensions each were immobilized and stained with a solution of formaldehyde of 3.7%, Nonidet P40 of 0.5%, and 10 μg/mL of Hoechst33258 (Invitrogen) in PBS. […] The counting was performed with respect to at least 300 cells in one measurement.
Each type of the recombinant vectors was transfected into HepG2 cells for 18 hours in the same manner as in the above-described item (1). Each type of the transfection cells was treated with an anticancer agent “5-FU” having a predetermined concentration (0, 10, 30 μmol/L) for 60 hours. Then, the apoptosis (%) of the treated cells was examined according to “Apoptosis evaluation 1”. FIG. 1B is a graph showing apoptosis (%) in each type of the cells treated with 5-FU having a predetermined concentration (means±SD, n=3).

bax mRNA and noxa mRNA = experiment: bax and noxa mRNA by quantitative RT-PCR in siRNA-transfected HCT116 cells; details: HCT116, 5-FU 80 μmol/L, 24 hours, vs control
Description: Whether or not the increase in the 5-FU-induced expression of p53 mRNA caused by the knockdown of vegf IresRNA by vegf siRNA induces expression of mRNA of a bax gene or a noxa gene, which are both p53 target genes, was examined. Cells obtained by transfecting the same control siRNA vectors, vegf siRNA #1 vectors, or vegf siRNA #2 vectors as in the above into parent cells HCT116 were treated for 24 hours in the presence of 80 μmol/L of 5-FU (+) or in the absence of 5-FU (−). Thereafter, expressions of bax mRNA and noxa mRNA were analyzed by quantitative RT-PCR (means±SD, n=4).

vegf mRNA [1] = experiment: vegf mRNA expression by Northern blotting in HepG2 cells expressing vegf siRNA; details: HepG2, 18 hours after vector transfection, vs untransfected and control siRNA cells
Description: Total RNAs were extracted according to a guanidine thiocyanate method. Labeled cDNAs were produced using the following antisense primers, a klenow fragment (New England BioLabs, Inc., Inc.), and [α^−32P]dCTP, with the following cDNAs being templates. Thus obtained labeled cDNAs were used as probes for the Northern blotting.
The vegf siRNA #1 vectors, the vegf siRNA #2 vectors, and the control siRNA vectors were transfected into HepG2 cells (wild-type p53). These cells were cultured for 18 hours, and the expression level of vegf mRNA was analyzed by the Northern blotting. Also, with respect to the HepG2 cells not transfected with the vectors, the analysis was performed in the same manner. At the time of analysis, gapdh mRNA in each type of the cells was monitored as a loading control (hereinafter, the same applies). The cells were cultured using DMEM medium containing 10% fetal bovine serum and 100 μg/ml (100 units/ml) of streptomycin under the condition of 37° C. and 5% CO2 (hereinafter, the same applies).

p53 = experiment: endogenous p53 mRNA (quantitative RT-PCR) and p53 protein (Western) in siRNA-transfected HCT116 cells
Description: From the results obtained in the above (1) and (2), it is interpreted that vegf IresRNA exerts an adverse influence in the p53 cancer suppression pathway. Thus, the expression level of endogenous p53 in cells transfected with vegf siRNA was examined. Specifically, the same transfected parent cells […] as in the above were treated for 8 hours in the presence of 80 lμmol/L of 5-FU (+) or in the absence of 5-FU (−), after which expression of p53 mRNA was analyzed by quantitative RT-PCR (means±SD, n=4). Also, the transfected cells were treated in the presence of 80 μmol/L of 5-FU (+) for a predetermined time (0, 8, 16, 24 hours), after which p53 protein was detected by the Western immunoblotting described above.

vegf IresRNA = vegf IresRNA by Northern blotting in siRNA-transfected HCT116 cells; details: HCT116, 18 hours after transfection, vs control cells
Description: (§1) Whether or not vegf siRNA promotes the apoptosis sensitivity of cells was examined. In the same manner as in Example A1 except that HCT116 cells (parent cells, wild-type p53) were used instead of the HepG2 cells (wild-type p53), the vegf siRNA #1 vectors expressing siRNA #1, the vegf siRNA #2 vectors expressing siRNA #2, and the control siRNA vectors described above were respectively transfected into the HCT116 cells (parent cells, wild-type p53). Then, with regard to the cells after 18 hours from the transfection, the expression levels of vegf mRNA and gapdh mRNA were analyzed by quantitative RT-PCR (means±SD, n=4) and the expression levels of vegf IresRNA and gapdh mRNA were analyzed by Northern blotting. Also, with regard to HCT116 cells not transfected with the above-described recombinant vectors, the analyses were conducted in the same manner. The quantitative RT-PCR was conducted in the same manner as in Example B1, except that a primer set for vegf mRNA was used.

vegf mRNA [2] = experiment: vegf mRNA by quantitative RT-PCR in siRNA-transfected HCT116 cells; details: HCT116, 18 hours after transfection, ratio to gapdh mRNA
Description: From 1 μg of total RNA, cDNA was synthesized using SuperScriptII RNaseH(−) reverse transcriptase (Invitrogen), and PCR was performed using primers for amplification-purpose nucleic sequences with the cDNA being a template. The amplification and the quantitative analysis of PCR products were performed using Applied Biosystems 7500 (Applied Biosystems) by the method recommended by the manufacturer.
as §1

HCT116 cells = experiment: apoptosis of siRNA-expressing HCT116 cells treated with low-concentration anticancer agents, with or without rVEGF; details: for enhancement of apoptosis when cells were treated with rVEGF protein: HCT116, 1 ng/ml rVEGF plus anticancer agents; for apoptosis by treatments with anticancer agents of low concentrations: HCT116, etoposide 20 μmol/L, doxorubicin 170 nmol/L, 5-FU 40 μmol/L, 60 hours, vs untreated
Description: The recombinant vectors that express vegf siRNA#1 and #2 and the vectors that express control siRNA were transfected into HCT116 cells (parent cells, wild-type p53). As a control cell, an HCT116 cell not transfected with a recombinant vector that expresses siRNA was used. These four types of cells were treated in the presence or absence of various anticancer agents having the final concentrations as described below for 60 hours. As the anticancer agent, etoposide (20 μmol/L), doxorubicin (170 nmol/L), and 5-FU (40 μmol/L) were used. With respect to the treated cells, apoptosis (%) was quantified in the same manner as in Example A1.
UTR RNA and function of VEGF protein. With the aim of clarifying an effect of blocking the function of vegf 5′ UTR RNA, recombinant VEGF protein (R&D systems, hereinafter referred to as “rVEGF”) was added to a culture supernatant of cells transfected with vegf siRNA in order to add VEGF protein that is decreased due to siRNA. […] Therefore, in Example A9, 1 ng/ml of rVEGF protein was added to the four types of cells. […] Then, these transfection cells were treated with anticancer agents in the same manner as described above.

[3] = HCT116, absence of 5-FU, vs control
[4] = HCT116, further treated with 5-FU 80 μmol/L, 8 hours
[5] = HCT116, further treated with 5-FU 80 μmol/L, up to 24 hours

Substance | basal apoptosis (HepG2 cells) | proportion of apoptosis in response to 5-FU (HepG2 cells) | induction of the expressions of bax mRNA and noxa mRNA by 5-FU (bax mRNA and noxa mRNA) | expression amount of vegf mRNA (vegf mRNA [1]) | amount of the expressed p53 mRNA (p53; [3]) | amount of the expressed p53 mRNA (p53; [4]) | amount of the expressed p53 protein (p53; [5]) | amount of the expressed p53 protein (p53; HCT116, vs control) | amount of the expressed vegf IresRNA (vegf IresRNA) | amount of the vegf mRNA expressed (vegf mRNA [2]) | enhancement of apoptosis when cells were treated with rVEGF protein (HCT116 cells) | apoptosis by treatments with anticancer agents of low concentrations (HCT116 cells)
siRNA #1: siRNA against vegf mRNA, SEQ ID NO 3/4, antisense complementary to bases 1062-1082 in SEQ ID NO. 1; expressed from pcDNA6.2-GW/EmGFP-miR vector (sense GCAUUGGACUUGCCUUGCUNN; antisense AGCAAGGCAAGGCUCCAAUGCNN) | not affected | increased markedly | promoted markedly | decreased markedly | increased | increased markedly | increased markedly | increased | decreased | decreased markedly | affected very little | enhanced markedly
siRNA #2: siRNA against vegf mRNA, SEQ ID NO 5/6, antisense complementary to bases 1067-1087 in SEQ ID NO. 1; vector-expressed (sense GGAGCCUUGUUGCUGCUCUNN; antisense AGAGCAGCAAGGCAAGGCUCCNN) | not affected | increased markedly | promoted markedly | decreased markedly | increased | increased markedly | increased markedly | increased | decreased markedly | decreased markedly | affected very little | enhanced markedly
